Source: PubChem BioAssay AID330 (DTP/NCI, 2004)
“And” between values parts separate entries of the source, which are not always exact repeats. Equal values may be shown once. Toxic doses and inconclusive results are not listed.

Tested on: P388 leukemia ip, CD2F1 mice, survival T/C
Assay: NCI In Vivo Anticancer Drug Screen. Data for tumor model P388 Leukemia (intraperitoneal) in CD2F1 (CDF1) mice
Conditions: endpoint: median survival time, higher = longer survival
Outline: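 Mice carrying the transplanted tumor received test compound or vehicle. Survival was recorded in each group, and the value is the treated-group measurement divided by that of the vehicle-treated control group.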

[1] = dose: 50.0 mg/kg/injection, schedule: Q01DX009 (ip), vehicle: saline with Tween-80
[2] = dose: 100.0 mg/kg/injection, schedule: Q01DX009 (ip), vehicle: saline with Tween-80
[3] = dose: 200.0 mg/kg/injection, schedule: Q01DX009 (ip), vehicle: saline with Tween-80
[4] = dose: 200.0 mg/kg/injection, schedule: Q01DX005 (ip), vehicle: saline with Tween-80
[5] = dose: 50.0 mg/kg/injection, schedule: Q01DX005 (ip), vehicle: saline with Tween-80
[6] = dose: 100.0 mg/kg/injection, schedule: Q01DX005 (ip), vehicle: saline with Tween-80

CN(C)CCCN1CN(CCCN(C)C)CC(C)(C)C1
T/C [1]: 103 % of control | T/C [2]: 106 % of control

Nc1cccc(OCCOc2cccc(S(=O)(=O)F)c2)c1
T/C (dose: 50.0 mg/kg/injection, schedule: Q01DX001 (ip), vehicle: saline with Tween-80): 109 % of control | T/C (dose: 100.0 mg/kg/injection, schedule: Q01DX001 (ip), vehicle: saline with Tween-80): 100 % of control | T/C (dose: 200.0 mg/kg/injection, schedule: Q01DX001 (ip), vehicle: saline with Tween-80): 100 % of control

C[n+]1ccccc1C1(O)CCCC1
T/C [1]: 94 % of control | T/C [2]: 100 % of control | T/C [3]: 100 % of control

CCOC(=O)/N=[N+](\[O-])c1ccc([N+](=O)[O-])cc1
T/C (dose: 100.0 mg/kg/injection, schedule: Q01DX001 (ip), vehicle: Klucel (hydroxypropylcellulose) (HPC)): 95 % of control

O=C1OC2C(O)COC2(N=Nc2ccc(Cl)cc2)/C1=N/Nc1ccccc1 (stereo unspecified)
T/C (dose: 6.25 mg/kg/injection, schedule: Q01DX005 (ip), vehicle: saline with Tween-80): 104 % of control | T/C (dose: 12.5 mg/kg/injection, schedule: Q01DX005 (ip), vehicle: saline with Tween-80): 93 % of control | T/C (dose: 25.0 mg/kg/injection, schedule: Q01DX005 (ip), vehicle: saline with Tween-80): 89 % of control | T/C [4]: 90 % of control

CCCCCCCCCCCC#CC(=O)O
T/C [1]: 110 % of control | T/C [2]: 102 % of control | T/C [3]: 105 % of control

O=C(c1ccccc1)N1OC2C=CC1CC2 (stereo unspecified)
T/C [1]: 104 % of control | T/C [2]: 98 % of control | T/C [3]: 109 % of control

O=C(O)C(Cc1ccc(F)cc1)NC(=O)C(F)(F)F (stereo unspecified)
T/C [1]: 95 % of control | T/C [2]: 95 % of control | T/C [3]: 100 % of control

CNCCCCc1cc(-c2ccc([N+](=O)[O-])cc2)n[nH]1
T/C (dose: 100.0 mg/kg/injection, schedule: Q04DX003 (ip), vehicle: Klucel (hydroxypropylcellulose) (HPC)): 105 % of control

CNC(=O)OCc1c(COC(=O)NC)c(-c2ccccc2)n(C)c1C
T/C (dose: 50.0 mg/kg/injection, schedule: Q01DX009 (ip), vehicle: distilled water + Tween-80): 90 % of control

CC1(C)CN(C(C)(C)C)COC1OC1OCN(C(C)(C)C)CC1(C)C (stereo unspecified)
T/C (dose: 37.5 mg/kg/injection, schedule: Q01DX009 (ip), vehicle: saline with Tween-80): 118 % of control | T/C (dose: 75.0 mg/kg/injection, schedule: Q01DX009 (ip), vehicle: saline with Tween-80): 109 % of control | T/C (dose: 150.0 mg/kg/injection, schedule: Q01DX009 (ip), vehicle: saline with Tween-80): 119 % of control

Nc1cc2[nH]c(=O)oc2cc1Cl
T/C (dose: 50.0 mg/kg/injection, schedule: Q01DX005 (ip), vehicle: Klucel (hydroxypropylcellulose) (HPC)): 94 % of control | T/C (dose: 100.0 mg/kg/injection, schedule: Q01DX005 (ip), vehicle: Klucel (hydroxypropylcellulose) (HPC)): 100 % of control | T/C (dose: 200.0 mg/kg/injection, schedule: Q01DX005 (ip), vehicle: Klucel (hydroxypropylcellulose) (HPC)): 94 % of control

CC(=O)N(O)c1ccc2c(c1)Cc1cc(F)ccc1-2
T/C [5]: 110 % of control and 121 % of control | T/C [6]: 120 % of control | T/C [4]: 123 % of control | T/C (dose: 400.0 mg/kg/injection, schedule: Q01DX005 (ip), vehicle: saline with Tween-80): 116 % of control

CSC(=S)/C(=C/Nc1ccccn1)c1ccccc1
T/C (dose: 0.93 mg/kg/injection, schedule: Q01DX005 (ip), vehicle: Klucel (hydroxypropylcellulose) (HPC)): 100 % of control | T/C (dose: 1.87 mg/kg/injection, schedule: Q01DX005 (ip), vehicle: Klucel (hydroxypropylcellulose) (HPC)): 94 % of control

NC(Cc1ccc(O)cc1)C(=O)N/N=C/c1ccccc1O (stereo unspecified)
T/C [5]: 92 % of control | T/C [6]: 90 % of control | T/C [4]: 113 % of control

CCC(=O)C[N+]12CCN(CC1)CC2
T/C (dose: 25.0 mg/kg/injection, schedule: Q04DX002 (ip), vehicle: Klucel (hydroxypropylcellulose) (HPC)): 105 % of control | T/C (dose: 50.0 mg/kg/injection, schedule: Q04DX002 (ip), vehicle: Klucel (hydroxypropylcellulose) (HPC)): 104 % of control
